Assay results: US20110105389A1 (priority 2009, published 2011)
Like-named read-outs stand apart in the source and are kept apart here.

How the values were obtained:
[1] = test system: rat stomach fundus strips; test: Ex-vivo potency evaluation on the rat stomach fundus (inhibition of ghrelin-induced contractility), Method B10; settings: EFS
Experimental: B10. Ex-vivo Potency Evaluation on the Rat Stomach Fundus
Fundus strips (approximately 0.4×1 cm) were cut from the stomach of adult male Wistar rats parallel to the circular muscle fibers. They were placed between two platinum ring electrodes, 1 cm apart (Radnoti, ADlnstruments, USA) in 10 ml tissue baths containing Krebs solution bubbled with 5% CO2 in O2 and maintained at 37° C. Tissues were suspended under 1.5 g resting tension. Changes of tension were measured isometrically with force transducers and recorded with a PowerLab 8/30 data acquisition system (ADlnstruments, USA). Tissues were allowed to equilibrate for 60 min during which time bath solutions were changed every 15 min.
EFS was achieved by applying 0.5 ms pulses, 5 Hz frequency, at a maximally effective voltage of 70 V. EFS was applied for 30 sec at 3 min intervals for a 30 min initial period. This initial period was separated by a […] interval with wash out of the bath solution. Then, a second period of stimulation was started. […] Responses to the agents were measured and expressed as % of the mean of three or four pre-drug responses to EFS. All compounds were dissolved at 1 mM in distilled water or MeOH, as stock solutions.
IC50 values for the inhibition of ghrelin-induced contractility by representative compounds of the invention are presented in Table 7.

[2] = biological target: T1, GHS-R1a receptor (HEK293 cells expressing GHS-R1a receptor) (Homo sapiens, UniProt Q92847); test: Fluorescence functional assay (ghrelin receptor), Method B2, agonist and antagonist mode; format: cell-based; settings: functional activity as an antagonist at the ghrelin receptor, Methods B2 and B3
T1 construct: host or cells: HEK293
T1 sequence (Q92847 whole entry): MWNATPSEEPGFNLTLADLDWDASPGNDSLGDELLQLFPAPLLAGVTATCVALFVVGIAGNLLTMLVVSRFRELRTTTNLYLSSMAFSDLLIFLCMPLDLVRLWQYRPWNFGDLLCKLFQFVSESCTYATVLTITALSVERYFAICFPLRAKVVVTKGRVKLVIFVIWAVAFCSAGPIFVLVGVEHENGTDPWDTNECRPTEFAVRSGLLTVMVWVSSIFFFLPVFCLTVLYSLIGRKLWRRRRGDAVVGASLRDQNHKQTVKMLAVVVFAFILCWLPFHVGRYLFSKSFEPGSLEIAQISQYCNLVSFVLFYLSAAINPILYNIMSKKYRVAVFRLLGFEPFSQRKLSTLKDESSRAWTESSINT
Procedure, shortened: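 Calcium flux read by ImageTrak epifluorescence in HEK293 cells stably expressing GHS-R1a, loaded 1 h at 37 °C with Calcium-3 dye; buffer HBSS/20 mM Hepes, pH 7.4, with probenecid and BSA. Agonists injected after 10 s baseline, read 50 s more; antagonists 3 min. Sigmoidal fits gave EC50 or IC50.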

[3] = biological target: T2, human ghrelin receptor (GRLN, growth hormone secretagogue receptor, hGHS-R1a) (Homo sapiens, UniProt Q92847); test: Competitive radioligand binding assay (ghrelin receptor), Method B1
T2 construct: purchased PerkinElmer BioSignal #RBHGHSM, lot#1887; host or cells: HEK-293 cells, stably transfected (membranes)
T2 sequence (Q92847 whole entry): as above
Procedure, shortened: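 Membranes incubated with compound 30 min at rt in 25 mM Hepes pH 7.4, 1 mM CaCl2, 5 mM MgCl2, 2.5 mM EDTA, 0.4% BSA, max 0.1% DMSO; filtered on PEI-soaked GF/C, washed with cold Tris, scintillation counted. Curves fitted by variable-slope non-linear regression.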

CYP3A4 [4] = biological target: T3, CYP3A4 (Homo sapiens, UniProt P08684); test: biochemical
T3 sequence (P08684 whole entry): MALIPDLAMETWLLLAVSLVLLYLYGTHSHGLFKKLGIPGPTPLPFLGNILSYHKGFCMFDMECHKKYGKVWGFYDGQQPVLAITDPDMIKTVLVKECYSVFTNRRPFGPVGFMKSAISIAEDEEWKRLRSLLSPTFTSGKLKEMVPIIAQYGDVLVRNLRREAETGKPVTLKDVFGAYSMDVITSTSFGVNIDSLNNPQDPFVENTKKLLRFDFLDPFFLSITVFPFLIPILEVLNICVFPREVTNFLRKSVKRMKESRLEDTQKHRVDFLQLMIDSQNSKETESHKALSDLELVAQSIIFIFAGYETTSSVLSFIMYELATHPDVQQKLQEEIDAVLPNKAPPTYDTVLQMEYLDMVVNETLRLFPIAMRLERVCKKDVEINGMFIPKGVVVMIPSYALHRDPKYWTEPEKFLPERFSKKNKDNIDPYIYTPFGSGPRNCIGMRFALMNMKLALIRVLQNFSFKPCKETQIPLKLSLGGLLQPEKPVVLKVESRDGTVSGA

[5] = Metabolic stability in human liver microsomes, Method B8; format: in vitro ADME; settings: human liver microsomes 0.8 mg/mL, 5 μM compound, 37° C.
Description: B8. Metabolic Stability in Human Liver Microsomes
The liver is the primary site for phase I (oxidation) and phase II (glucuronidation) enzymatic activity responsible for xenobiotic metabolism. Human liver microsomes are used as in vitro screen of metabolic activity for candidate drugs. Similar studies can be run with microsomes from other species, such as those used for in vivo studies, to determine any significant species differences in the stability profile. The aim of this study was to measure the broad-spectrum metabolic stability of representative compounds of the invention. The key aspects of the experimental design are summarized below: • Human liver microsomes (mixed pool of 15 male and female donors) were purchased from In Vitro Technologies (Baltimore, Md.). • Microsomes characterized for phase I (Cyp2A6, 2D6, 2E1, 1A2, 2C19, 3A4, 4A) and phase II (glucuronidation) enzymatic activity. • Assays are performed using a final concentration of 0.8 mg/mL of microsomes in 100 mM potassium phosphate buffer (1.5 mM NADPH, 8 mM MgCl2, pH 7.4, 37° C.). • Compounds are tested in duplicate samples at a single concentration of 5 μM (0.05% DMSO). • Test articles are incubated with the microsomes at 37° C.

CYP2D6 [6] = biological target: T4, CYP2D6 (Homo sapiens, UniProt P10635); test: biochemical
T4 sequence (P10635 whole entry): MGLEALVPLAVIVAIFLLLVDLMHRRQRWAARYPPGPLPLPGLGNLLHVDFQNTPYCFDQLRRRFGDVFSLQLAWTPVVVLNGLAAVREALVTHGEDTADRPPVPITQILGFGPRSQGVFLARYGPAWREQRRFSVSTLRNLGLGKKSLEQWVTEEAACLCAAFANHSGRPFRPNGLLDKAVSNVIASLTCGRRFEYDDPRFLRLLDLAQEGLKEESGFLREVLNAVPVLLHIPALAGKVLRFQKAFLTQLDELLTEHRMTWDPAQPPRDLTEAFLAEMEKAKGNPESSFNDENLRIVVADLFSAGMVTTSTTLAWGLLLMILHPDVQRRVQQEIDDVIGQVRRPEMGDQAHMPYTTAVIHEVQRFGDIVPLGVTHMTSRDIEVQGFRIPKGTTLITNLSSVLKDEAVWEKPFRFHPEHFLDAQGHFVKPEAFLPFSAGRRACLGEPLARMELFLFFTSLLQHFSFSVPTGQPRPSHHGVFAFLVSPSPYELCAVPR

CYP3A4 [7] = biological target: T3, CYP3A4; test: Cytochrome P450 inhibition, Method B6 (two substrates); settings: read-out: IC50 CYP 3A4; Table 4b; midazolam used as substrate
CYP2D6 [8] = biological target: T4, CYP2D6; test: Cytochrome P450 inhibition, Method B6; settings: read-out: IC50 CYP 2D6; Table 4b; dextromethorphan used as substrate
[9] = Plasma protein binding (equilibrium dialysis), Method B5; format: in vitro ADME; settings: 60 min at 37° C., typically 10 μM
Description: B5. Plasma Protein Binding
The pharmacokinetic and pharmacodynamic properties of drugs are largely a function of the reversible binding of drugs to plasma or serum proteins such as albumin and α1-acid glycoprotein. In general, only unbound drug is available for diffusion or transport across cell membranes, and for interaction at the pharmacological target. On the other hand, drugs with low plasma protein binding generally have large volumes of distribution and rapid clearance since only unbound drug is available for glomerular filtration and, in some cases, hepatic clearance. Thus, the extent of plasma protein binding can influence efficacy, distribution and elimination. The ideal range for plasma protein binding is in the range of 87-98% for most drug products.
Protein binding studies were performed using human plasma. Briefly, 96-well microplates were used to incubate various concentrations of the test article for 60 min at 37° C. A concentration of 10 μM was a typical selection to be employed in this study. Bound and unbound fractions are separated by equilibrium dialysis, where the concentration remaining in the unbound fraction is quantified by LC-MS or LC-MS-MS analysis. […].

[10] = biological target: T5, ghrelin receptor (HEK-GHSR1 stable cells) (Homo sapiens, UniProt Q92847); test: Ghrelin receptor inverse agonist assay (HTRF IP-one), Method B4; format: cell-based; settings: inverse agonist at the ghrelin receptor, Method B4
T5 construct: expressed in transfected cells
T5 sequence (Q92847 whole entry): as the sequence (Q92847 whole entry) above
Procedure, shortened: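 HEK cells stably expressing GHSR1, seeded at 100 000 cells/well overnight, exposed to compound for 30 min at 37° C. Cells then lysed and IP1 accumulation measured by HTRF (d2 plus anti-IP1 cryptate, 1 h at room temp). Wells lacking d2 served as negative control.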

[11] = Pharmacokinetic analysis (intravenous and oral), Method B9; format: in vivo; settings: Table 10b; 2 mg/mL intravenous typically employed
Description: B9. Pharmacokinetic Analysis
The pharmacokinetic (PK) behavior of compounds of the invention and their pharmaceutical compositions can be ascertained by methods well known to those skilled in the art and can be used to investigate the pharmacokinetic parameters (elimination half-life, total plasma clearance, etc.) for intravenous, subcutaneous and oral administration of these substances. (Wilkinson, G. R. “Pharmacokinetics: The Dynamics of Drug Absorption, Distribution, and Elimination” in Goodman & Gilman's The Pharmacological Basis of Therapeutics, Tenth Edition, Hardman, J. G.; Limbird, L. E., Eds., McGraw Hill, Columbus, Ohio, 2001, Chapter 1.) See also U.S. Pat. Nos. 7,476,653; 7,491,695; Intl. Pat. Appl. WO 2008/033328 and U.S. Patent Appl. Publ. 2008/0194672. As an example, compound 1505 has the PK profile below.
The determination of PK parameters for additional representative compounds of the invention is presented in the Examples.
A detailed analysis of the pharmacokinetic profile of representative compounds of the invention was conducted using the procedures outlined in Method B9.
A dose level of 2 mg/mL for intravenous administration and 8 mg/mL for oral administration were typically employed.

[12] = Ghrelin receptor binding activity, Method B1

IC50 [1] | Antagonist Activity [2] | HLM, metabolic stability in human liver microsomes [5] | SMILES | IC50 [3, 12] | IC50 (CYP3A4 [7]) | also measured
75 nM | C (C = 10-100 nM) |  | CCC(C)[C@@H]1NCCOc2ccccc2/C=C/[C@@H](C)NC(=O)[C@@H](Cc2ccccc2)NC(=O)[C@H](C(C)O)N(C)C1=O (stereo partly drawn) [Compound 1315] | 1 to 10 nM |  | Ki [3, 12]: 1 to 10 nM
72 nM |  | 26.5 μL/min/mg protein | CC(C)[C@@H]1NCCOc2ccccc2/C=C/CNC(=O)[C@@H](Cc2ccccc2)NC(=O)[C@H](C(C)O)N(C)C1=O (stereo partly drawn) [Compound 1319] |  |  | IC50 (CYP3A4 [4]): 8000 nM; IC50 (CYP2D6 [6]): 19100 nM; IC50 [3]: 10 to 100 nM; Ki [3]: 1 to 10 nM
 | C (C = 10-100 nM) |  | CCC(C)[C@@H]1NCCOc2ccccc2/C=C/CNC(=O)[C@@H](Cc2cccc(F)c2)NC(=O)[C@H](C(C)O)N(C)C1=O (stereo partly drawn) [Compound 1326] |  |  | IC50 (CYP3A4 [4]): 2200 nM; IC50 (CYP2D6 [6]): > 5000 nM; IC50 [3]: 10 to 100 nM; Ki [3]: 1 to 10 nM
 |  |  | CCC(C)[C@@H]1NCCOc2ccccc2/C=C/CNC(=O)[C@@H](Cc2ccc(C(F)(F)F)cc2)NC(=O)[C@H](C(C)O)N(C)C1=O (stereo partly drawn) [Compound 1327] |  |  | IC50 (CYP3A4 [4]): > 17700 nM; IC50 (CYP2D6 [6]): > 25000 nM; IC50 [3]: 10 to 100 nM; Ki [3]: 1 to 10 nM
 |  |  | CCC(C)[C@@H]1NCCOc2ccccc2C[C@H](O)CNC(=O)[C@@H](Cc2ccccc2)NC(=O)[C@H](C(C)O)N(C)C1=O (stereo partly drawn) [Compound 1340] |  |  | IC50 (CYP3A4 [4]): 17200 nM; IC50 (CYP2D6 [6]): 13300 nM; IC50 [3]: 10 to 100 nM; Ki [3]: 10 to 100 nM
200 nM | B (B = 1-10 nM) |  | CC(C)[C@@H]1NCCOc2ccccc2CC[C@@H](C)NC(=O)[C@@H](Cc2cccc(F)c2)NC(=O)[C@H](C(C)O)N(C)C1=O (stereo partly drawn) [Compound 1364] |  |  | 
 | C (C = 10-100 nM) | 53 μL/min/mg protein | CC(C)[C@@H]1NCCOc2ccccc2CC[C@@H](C)NC(=O)[C@@H]([C@@H](C)c2ccccc2)NC(=O)[C@H](C(C)O)N(C)C1=O (stereo partly drawn) [Compound 1390] |  |  | IC50 (CYP3A4 [4]): 6900 nM; IC50 (CYP2D6 [6]): > 20000 nM
65 nM | A (A <1 nM) | 16.6 μL/min/mg protein | CC(C)[C@@H]1NCCOc2cc(F)ccc2CC[C@@H](C)NC(=O)[C@@H](Cc2ccccc2)NC(=O)[C@H](C(C)O)N(C)C1=O (stereo partly drawn) [Compound 1391] |  |  | 
4 nM | A (A <1 nM) | 23.6 μL/min/mg protein | CC(C)[C@@H]1NCCOc2cc(F)ccc2CC[C@@H](C)NC(=O)[C@@H](Cc2cccc(F)c2)NC(=O)[C@H](C(C)O)N(C)C1=O (stereo partly drawn) [Compound 1392] |  |  | 
360 nM | A (A <1 nM) | 54.2 μL/min/mg protein | CC(C)[C@@H]1NCCOc2ccccc2CC[C@@H](C)NC(=O)[C@@H](Cc2cccc(Cl)c2)NC(=O)[C@H](C(C)O)N(C)C1=O (stereo partly drawn) [Compound 1400] |  |  | 
 |  |  | CC(C)[C@@H]1NCCOc2ccc(F)cc2CC[C@@H](C)NC(=O)[C@@H](Cc2c[nH]c3ccccc23)NC(=O)[C@H](C(C)O)N(C)C1=O (stereo partly drawn) [Compound 1428] |  | 800 nM | IC50 (CYP2D6 [8]): 9100 nM
 |  |  | CC(C)[C@@H]1NCCOc2cccc(F)c2CC[C@@H](C)NC(=O)[C@@H](Cc2c[nH]c3ccccc23)NC(=O)[C@H](C(C)O)N(C)C1=O (stereo partly drawn) [Compound 1429] |  | 700 nM | IC50 (CYP2D6 [8]): > 20000 nM
 |  |  | CC(C)[C@@H]1NCCOc2ccccc2C#C[C@@H](C)NC(=O)[C@@H](Cc2ccc(F)cc2)NC(=O)[C@H](C(C)O)N(C)C1=O (stereo partly drawn) [Compound 1711] | 1 to 10 nM |  | Binding (%), Human Plasma Protein Binding [9]: 97.4%; IC50 [10]: 10 to 50 nM
 |  | 40.6 μL/min/mg protein | CC[C@@H]1C#Cc2ccc(F)cc2OCCN[C@@H](C(C)C)C(=O)N(C)[C@@H](C(C)O)C(=O)N[C@H](Cc2ccccc2)C(=O)N1 (stereo partly drawn) [Compound 1759] | 1 to 10 nM |  | Cl [11]: 14 ± 2 mL/min/kg; t1/2 [11]: 1.98 ± 1.68 h; IC50 [10]: 50 to 100 nM

SMILES | IC50 [1] | Antagonist Activity [2] | HLM, metabolic stability in human liver microsomes [5] | IC50 [3, 12] | IC50 (CYP3A4 [7]) | also measured
CC(C)[C@@H]1NCCOc2ccccc2/C=C/CNC(=O)[C@@H](Cc2cccc(O)c2)NC(=O)[C@H](C(C)O)N(C)C1=O (stereo partly drawn) [Compound 1350] |  | C (C = 10-100 nM) |  |  | 5700 nM | IC50 (CYP2D6 [8]): 7900 nM
CC(O)[C@H]1C(=O)N[C@H](Cc2ccc(Cl)cc2)C(=O)NC/C=C/c2ccccc2OCCN[C@@H](C2(C)CC2)C(=O)N1C (stereo partly drawn) [Compound 1729] |  | B (B = 1-10 nM) | 54.8 μL/min/mg protein | 1 to 10 nM | 1900 nM | IC50 [10]: 50 to 100 nM
CCC(C)C1NCCOc2ccccc2C=CCNC(=O)C(Cc2ccc(Cl)cc2)NC(=O)C(C(C)O)N(C)C1=O (stereo not drawn) [Compound 1730] |  |  | 61.9 μL/min/mg protein | 1 to 10 nM | 1600 nM | IC50 [10]: 100 to 500 nM
CC[C@@H]1NCCOc2ccccc2/C=C/CNC(=O)[C@@H](Cc2ccc(Cl)cc2)NC(=O)[C@H](C(C)O)N(C)C1=O (stereo partly drawn) [Compound 1732] |  |  | 52.2 μL/min/mg protein | 10 to 100 nM | 2900 nM | IC50 [10]: 100 to 500 nM
